Data as given in PMC6918687, “Pharmacological inhibition of TAK1, with the selective inhibitor takinib, alleviates clinical manifestation of arthritis in CIA mice” (Arthritis Research & Therapy, 2019).

Assays:
CIA mice = assay: CIA mouse model: joint histopathology scores, day 36; assay type: in vivo, DBA/1 mice
From the text: After 1–2 days in fixative and 4–5 days in 5% formic acid for decalcification, tissues were trimmed and processed for paraffin embedding. Paws were embedded in paraffin in the frontal plane, and the knees were embedded with the patella facing down. Ankles, if left attached to the hind paw, were also embedded in the frontal plane but may be detached and sectioned in the sagittal plane for special purposes. Left/right pairs were typically embedded in the same block. Sections were cut and stained with toluidine blue.
The paw score criteria were as follows: 0 = Normal. 0.5 = Very minimal, affects only 1 joint or minimal multifocal periarticular infiltration of inflammatory cells. 1 = Minimal infiltration of inflammatory cells in synovium and periarticular tissue of affected joints. 2 = Mild infiltration of inflammatory cells. When referring to paws, generally restricted to affected joints (1–3 affected). 3 = Moderate infiltration with moderate edema. When referring to paws, restricted to affected joints, generally 3–4 joints and the wrist or ankle. 4 = Marked infiltration affecting most areas with marked edema, 1 or 2 unaffected joints may be present. 5 = Severe diffuse infiltration with severe edema affecting all joints (to some extent) and periarticular tissues.
The knee score criteria were as follows: 0 = Normal. 0.5 = Very minimal, affects only one area of the synovium or minimal multifocal periarticular infiltration of inflammatory cells. 1 = Minimal infiltration of inflammatory cells in synovium and periarticular tissue of affected synovial areas. 2 = Mild diffuse infiltration of inflammatory cells. 3 = Moderate diffuse infiltration of inflammatory cells. 4 = Marked diffuse infiltration of inflammatory cells. 5 = Severe diffuse infiltration of inflammatory cells.
The cartilage damage score criteria were as follows: 0 = Normal. 0.5 = Very minimal = Affects marginal zones only of one to several areas (knees) or joints (paws). 1 = Minimal = Generally minimal to mild loss of toluidine blue staining (proteoglycan) with no obvious chondrocyte loss or collagen disruption in affected joints/areas. 2 = Mild = Generally mild loss of toluidine blue staining (proteoglycan) with focal areas of chondrocyte loss and/or collagen disruption in some affected joints/areas. Paws may have one or two digit joints with near total to total loss of cartilage. 3 = Moderate = Generally moderate loss of toluidine blue staining (proteoglycan) with multifocal chondrocyte loss and/or collagen disruption in affected joints/areas. Paws may have three or four joints with near total or total loss. In the knee, some matrix remains on any affected surface with areas of severe matrix loss. 4 = Marked = Marked loss of toluidine blue staining (proteoglycan) with multifocal marked (depth to deep zone or tidemark) chondrocyte loss and/or collagen disruption in most joints with a few unaffected or mildly affected. In the knee, one surface with total to near total cartilage loss. 5 = Severe = Severe diffuse loss of toluidine blue staining (proteoglycan) with severe (depth to tide mark) chondrocyte loss and/or collagen disruption in most or all joints.

RA-FLS cells [1] = assay: NF-κB signaling protein array, TNF-stimulated RA-FLS cells; assay type: cell-based, human; conditions: TNF 30 ng/mL 24 h
Procedure: (§1) Rheumatoid arthritis fibroblast-like synoviocytes (RA-FLS) cells were prepared from surgical synovial samples at the University of Michigan as previously described. Cells were isolated from 4 individual patients (3 female, 1 male) and passaged no more than 2 times before use. Cells were cultured in CRML media, 10% FBS, 1% penicillin-streptomycin (PS), and 1% glutamate.
(§2) Briefly, 10^6 cells were plated and either no treatment (naïve) or pretreated with takinib (10 μM) or vehicle (DMSO) for 30 min prior to stimulation with TNF (30 ng/mL) for 30 min at 37 °C in 5% CO2 for phospho-kinase assay (R&D Systems). NF-κB and cytokine assays were performed as previously described; however, cells were incubated for 24 h post-TNF (30 ng/mL) or LPS (10 ng/mL) stimulation.

RA-FLS cells [2] = assay: Cytokine/chemokine proteome array, TNF-stimulated RA-FLS cells; assay type: cell-based, human; conditions: takinib 10 μM, TNF 30 ng/mL 24 h
Procedure: as §1
RA-FLS cells were activated by addition of LPS 10 ng/mL in the presence or absence of 10 μM takinib or DMSO. Twenty-four hours after treatment, supernatant was added to Human Cytokine proteome array (R&D Systems). Cytokine kit was conducted in accordance with manufacturer protocol. Chemiluminescence was used to visualize protein quantities.
as §2

RA-FLS cells [3] = assay: Cytokine/chemokine proteome array, LPS-stimulated RA-FLS cells; assay type: cell-based, human; conditions: takinib 10 μM
Procedure: as §1
[…] Twenty-four hours after treatment, supernatant was added to Human Cytokine proteome array (R&D Systems). Cytokine kit was conducted in accordance with manufacturer protocol. Chemiluminescence was used to visualize protein quantities.

TAK1 = conditions: read-out: potency as inhibitor of TAK1; cited from earlier work

## CCCn1/c(=N/C(=O)c2cccc(C(N)=O)c2)[nH]c2ccccc21 [takinib]
CIA mice; 50 mg/kg daily (discussion)
  reduction of disease burden: ~ 40%
CIA mice; 50 mg/kg daily, all joints, p = 0.06
  reduction of overall periosteal bone width vs vehicle: 35%
CIA mice; 50 mg/kg daily, day 36
  reduction of overall sum score of knees: ~ 40%
CIA mice; 50 mg/kg daily, day 36, p = 0.013
  cartilage damage score, all joints: significantly reduced
CIA mice; 50 mg/kg daily, day 36, p = 0.019
  inflammation score, all joints: significantly reduced
CIA mice; 50 mg/kg daily, day 36, p = 0.02
  reduction of overall joint pathology (all joints summed histological score) vs vehicle: ~ 30%
CIA mice; 50 mg/kg daily, inflammation, pannus, cartilage damage, bone resorption, periosteal bone formation
  average reduction in disease pathology, hind paws and forepaws: 20–30%
CIA mice; 50 mg/kg daily, p = 0.0042
  histological score of cartilage damage, knees: significantly reduced
CIA mice; 50 mg/kg daily, p = 0.0044
  histological score of inflammation, knees: significantly reduced
CIA mice; 50 mg/kg daily, trend
  reduction of bone resorption histological score, knees: ~ 40%
  reduction of pannus histological score, knees: ~ 40%
CIA mice; 50 mg/kg daily, vs vehicle, p = 0.0078
  overall sum histological score, hind paws: reduced
CIA mice; 50 mg/kg daily, vs vehicle, p = 0.0091
  overall sum histological score, forepaws: reduced
RA-FLS cells [1]; takinib 10 μM, n=4
  ASC expression, array signal, Mean: 29.77
  BCL10 expression, array signal, Mean: 15.76
  CARD6 expression, array signal, Mean: 15.29
  CD40/TNFRSFS expression, array signal, Mean: 23.956
  FADD/MORT1 expression, array signal, Mean: 36.45
  Fas/TNFRSF6/CD95 expression, array signal, Mean: 172.1241
  IKK1/IKKα/CHUK expression, array signal, Mean: 55.68
  IKK2/IKKβ expression, array signal, Mean: 112.6481
  IKKγ/NEMO expression, array signal, Mean: 107.307
  IL-1 RI expression, array signal, Mean: 21.68
  IL-17 RA expression, array signal, Mean: 19.1835
  IL-18 Rα expression, array signal, Mean: 17.5855
  IRAK1 expression, array signal, Mean: 26.78
  IRF5 expression, array signal, Mean: 16.411
  IRF8 expression, array signal, Mean: 17.251
  IkBα expression, array signal, Mean: 33.4
  IkBε expression, array signal, Mean: 178.592
  JNK1/2 expression, array signal, Mean: 19.76
  JNK2 expression, array signal, Mean: 17.3675
  LTBR/TNFRSF3 expression, array signal, Mean: 22.136
  MYD88 expression, array signal, Mean: 36.28
  Metadherin/AEG-1 expression, array signal, Mean: 31.01
  NFκB1 expression, array signal, Mean: 66.143
  NFκB2 expression, array signal, Mean: 136.3483
  NGF R/TNFRSF16 expression, array signal, Mean: 16.68
  RelA/p65 (pS529) array signal, Mean: 41.57
  RelA/p65 expression, array signal, Mean: 55.81
  SHARPIN expression, array signal, Mean: 17.06
  SOCS6 expression, array signal, Mean: 64.37
  STAT1 (pY701) array signal, Mean: 15.5275
  STAT1p91 expression, array signal, Mean: 116.4024
  STAT2 (pY689) array signal, Mean: 15.96
  STAT2 expression, array signal, Mean: 148.6364
  STING/TMEM173 expression, array signal, Mean: 106.8409
  TLR2 expression, array signal, Mean: 15.725
  TNF RI/TNFRSF1A expression, array signal, Mean: 14.7
  TNF RII/TNFRSF1B expression, array signal, Mean: 18.3335
  TRAF2 expression, array signal, Mean: 17.884
  TRAIL R1/DR4 expression, array signal, Mean: 21.6
  TRAIL R2/DR5 expression, array signal, Mean: 91.34
  c-Rel expression, array signal, Mean: 16.52
  clAP1/BIRC2 expression, array signal, Mean: 25.47
  clAP2/BIRC3 expression, array signal, Mean: 18.82
  p53 (pS46) array signal, Mean: 14.94
  p53 expression, array signal, Mean: 17.85
RA-FLS cells [1]; takinib, out of 45 profiled
  number of NF-κB signaling proteins significantly altered: 20
RA-FLS cells [2]; p < 0.002
  GROα (CXCL1) secretion: reduced
RA-FLS cells [2]; p < 0.03
  ICAM secretion: reduced
RA-FLS cells [2]; p < 0.04
  G-CSF secretion: reduced
RA-FLS cells [2]; p = 0.11
  MIP-1α/MIP-1β secretion: modest change
RA-FLS cells [3]
  MIF protein level: No significant changes
  Serpin E1 protein level: No significant changes
RA-FLS cells [3]; p < 0.0003
  CXCL1 level: significantly downregulated
RA-FLS cells [3]; p < 0.0009
  CCL2 level: significantly downregulated
RA-FLS cells [3]; p < 0.006
  reduction of IL-8: 57%
RA-FLS cells [3]; p < 0.055
  reduction of IL-6: 33%
TAK1
  IC50: ~9 nM
